Where two headings read alike, the source gives them in different places.
System: SARS-CoV-2 (USA-WA1/2020)
Type: cell-based
Conditions: Caco-2 cells, vs DMSO controls

Cc1cccc(/C=N/Nc2cc(N3CCOCC3)nc(OCCc3ccccn3)n2)c1 [Apilimod]
Percent Infection (Exp 1) (apilimod 31.25 nM single agent): 93.632%
Percent Infection (Exp 2) (apilimod 31.25 nM single agent): 74.342%
Percent Infection (Exp 1) (apilimod 62.5 nM single agent): 75.308%
Percent Infection (Exp 2) (apilimod 62.5 nM single agent): 53.914%
Percent Infection (Exp 1) (apilimod 125 nM single agent): 35.618%
Percent Infection (Exp 2) (apilimod 125 nM single agent): 37.259%
Percent Infection (Exp 1) (apilimod 250 nM single agent): 11.935%
Percent Infection (Exp 2) (apilimod 250 nM single agent): 29.685%
Percent Infection (Exp 1) (apilimod 500 nM single agent): 12.267%
Percent Infection (Exp 2) (apilimod 500 nM single agent): 18.730%
Percent Infection (Exp 1) (apilimod 1000 nM single agent): 4.524%
Percent Infection (Exp 2) (apilimod 1000 nM single agent): 2.968%
Percent Infection (Exp 1) (apilimod 2000 nM single agent): 0.591%
Percent Infection (Exp 2) (apilimod 2000 nM single agent): 0.297%

From patent US20240189317A1, “ANTIVIRAL COMPOSITIONS AND METHODS” (AI Therapeutics, Inc., priority 2021, published 2024)
